The experiment deals with Substance-P receptor (Homo sapiens, UniProt P25103). Put plainly: Binding affinity towards Tachykinin receptor 1 expressed in CHO cells using [3H][Pro9]-SP as radioligand. The class given is cell-based.

In ChEMBL document CHEMBL1134216, “Synthesis, modelling and NK1 antagonist evaluation of a non-rigid cyclopropane-containing analogue of CP-99,994” (Bioorg Med Chem Lett, 2001) one finds Ki data, which are given here for two molecules.

Chain of Substance-P receptor (P25103 whole entry): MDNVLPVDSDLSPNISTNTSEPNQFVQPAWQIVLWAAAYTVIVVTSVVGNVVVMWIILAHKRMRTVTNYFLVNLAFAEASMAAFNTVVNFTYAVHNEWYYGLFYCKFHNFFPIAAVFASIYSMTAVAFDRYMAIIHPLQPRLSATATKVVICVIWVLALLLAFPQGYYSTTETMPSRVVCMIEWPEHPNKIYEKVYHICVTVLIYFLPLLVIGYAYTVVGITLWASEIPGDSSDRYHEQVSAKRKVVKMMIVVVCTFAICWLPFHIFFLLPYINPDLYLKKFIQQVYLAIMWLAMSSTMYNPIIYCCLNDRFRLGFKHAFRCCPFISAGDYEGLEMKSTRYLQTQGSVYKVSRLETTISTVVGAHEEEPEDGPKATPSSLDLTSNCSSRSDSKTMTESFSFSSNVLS

In the case of `CNC(c1ccccc1)C1(NCc2cc(C(F)(F)F)cc(C(F)(F)F)c2)CC1` (racemic), the Ki was 620 nM. Molecule `CNC(c1ccccc1)C1(NCc2ccccc2OC)CC1` (configuration not stated) had a Ki of 150 nM.
